The values below come from patent EP1614683B1, “Indazole compounds and pharmaceutical compositions for inhibiting protein kinases, and methods for their use” (priority 1999, dated 2001).

The target in data set [1] is human FGF-R1 (Homo sapiens, UniProt P11362, C488A/C584S/L457V). Description: FGF-R spectrophotometric assay. It is filed as biochemical. To be noted: Table 1; compound concentration 1 µM; read-out: FGF-P* (% inhibition). Here is the method:
The spectrophotometric assay was carried out as described above for VEGF-R2, except for the following changes in concentration: FGF-R = 50 nM, ATP = 2 mM, and poly(E4Y1) =15 mM.

In data set [2] the target is LCK tyrosine kinase (Homo sapiens, UniProt P06239, C224D/P223M). Description: LCK spectrophotometric assay. It is filed as biochemical. To be noted: Table 1; compound concentration 1 µM; read-out: Lck-P* (% inhibition). How it is done:
The spectrophotometric assay was carried out as described above for VEGF-R2, except for the following changes in concentration: LCK = 60 nM, MgCl2 = 0 mM, poly(E4Y1) = 20 mM.

Data set [3] has as its system human umbilical vein endothelial cells (HUVEC). The data set can be described thus: HUVEC proliferation assay (VEGF-stimulated, MTT). To be noted: Homo sapiens, HUVEC, Table 1. In kind it is cell-based.
A short description of data set [4]: in vitro. It is filed as in vitro ADME, human. As to conditions: 2 h. The essentials: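 HLM diluted to 5 mg/mL in 100 mM KPO4, preincubated 10 min at 37 °C with NADPH-regenerating system. Compound (5 µM final) incubated at 37 °C in triplicate, sampled at 0 and 2 h into ice-cold acetonitrile, then LC-MS analysis.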
Data set [5] has as its system VEGF dependent retinal neovascularization. Description: Neonatal rat model of retinopathy of prematurity. It is filed as in vivo. As to conditions: Model ROP, intravitreal, vehicle PEG/water 70:30. How it is done: A second model of VEGF dependent retinal neovascularization was employed to evaluate the activities of this series of compounds. […] The animals are exposed for 24 hours to a concentration of 50% oxygen followed by 24 hours at a concentration of 10% oxygen. This alternating cycle of hyperoxia followed by hypoxia is repeated 7 times after which the animals are removed to room air (P14). Compounds are administered via intravitreal injection upon removal to room air and the animals are sacrificed 6 days later (P20). The isolated retinas are then isolated, stained mounted and analyzed as detail above in the development model. The effectiveness was also graded as is described for the development model.

Data set [6] concerns VEGF dependent retinal vascular development. The data set can be described thus: In vivo assay of retinal vascular development in neonatal rats. Details: species or system rat. To be noted: Model P8, intravitreal, 5 mg/ml, vehicle PEG/water 50:50. Here is the method: The development of the retinal vascular in rats occurs from postnatal day 1 to postnatal day 14 (P1-P14). […] To assess the ability of specific compounds to inhibit the activity of VEGF in vivo, compounds were formulated in an appropriate vehicle, usually 50% polyethylene glycol, average molecular weight 400 daltons, and 50% solution of 300 mM sucrose in deionized water. […] Six days after the intravitreal injection, the animals were sacrificed and the retinas dissected free from the remaining ocular tissue. […] The individual retinas are then flat-mount onto glass slides and examined to determine the extent of vascularization. […] The amount of vessel regression was used to assess the relative potency of the compounds after in vivo administration.
For more quantitative analysis of regression, images of ADPase-stained, flat-mounted retinas were captured with a digital camera attached to a dissecting microscope. Retinal images were then imported into an image analysis software (Image Pro Plus 4.0, Media Cybernetics, Silver Spring, MD). The software was employed to determine the percentage of the area of the retina that contained stained vessels. This value for the experimental eye was compared to that measured for the vehicle injected, contralateral eye from the same animal. The reduction in the vascular area seen in the eye that received compound as compared to the vehicle-injected eye was then expressed as the "percent regression" for that sample.

For data set [7] the following is noted: for AUCleast: mouse, in vivo, pH 2.3; for T1/2: vehicle PEG400:H2O pH 2.3 60:40.
The nature of data set [8]: in vivo. As to conditions: mouse, plasma, pH 2.3.
[9] abbreviates: + albumin, read-out: HUVEC + albumin IC50.
The mark [10] stands for this setting: human liver microsomes, 5 µM test compound, 37 °C.

Values joined by “and” are separate entries in the source; they are usually repeats but may differ in a detail not shown here. Identical values can stand only once. Like-named read-outs stand apart in the source and are kept apart here.

Chain of human FGF-R1 (P11362 456-766 L457V/C488A/C584S): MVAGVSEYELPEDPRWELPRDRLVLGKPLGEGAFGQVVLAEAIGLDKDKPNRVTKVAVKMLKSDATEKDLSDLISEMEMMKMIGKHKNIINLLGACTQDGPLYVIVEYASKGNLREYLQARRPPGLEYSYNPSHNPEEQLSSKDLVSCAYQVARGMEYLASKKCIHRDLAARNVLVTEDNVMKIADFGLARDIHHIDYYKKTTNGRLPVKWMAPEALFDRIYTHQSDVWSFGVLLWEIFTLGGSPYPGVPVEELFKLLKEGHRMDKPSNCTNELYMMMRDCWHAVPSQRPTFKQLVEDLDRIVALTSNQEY
Chain of LCK tyrosine kinase (P06239 223-509 P223M/C224D): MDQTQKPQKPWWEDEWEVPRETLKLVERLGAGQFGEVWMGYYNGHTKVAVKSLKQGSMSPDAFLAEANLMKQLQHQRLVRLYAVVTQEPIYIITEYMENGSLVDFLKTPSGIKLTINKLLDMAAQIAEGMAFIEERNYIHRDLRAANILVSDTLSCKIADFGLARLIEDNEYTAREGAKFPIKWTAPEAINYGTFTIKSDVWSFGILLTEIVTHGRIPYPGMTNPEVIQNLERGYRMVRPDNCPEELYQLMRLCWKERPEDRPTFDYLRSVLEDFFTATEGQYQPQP

Usually inhibition stands for the relative decrease from the control value, in per cent. Usually IC50 stands for the concentration that gives 50% inhibition. By % Inhibition is commonly meant the change of the read-out against control, counted positive when it falls. Higher therefore signals a response far below the control. In the case of `CC(=O)c1cccc(C(=O)Nc2cccc(N(C)c3ccc4c(/C=C/c5ccc6c(c5)OCO6)n[nH]c4c3)c2)c1` [16(e), 3-Acetyl-N-(3-{[3-(2-benzo[1,3]dioxol-5-yl-vinyl)-1H-indazol-6-yl]-methyl-amino}-phenyl)-benzamide], the inhibition at 1 µM in data set [1] was 59%; in data set [2] it was 8%. In addition, the concentration for half-maximal inhibition (IC50) turned out to be 106 nM in data set [3] (setting [9]) and 4.9 nM in data set [3] (read-out: HUVEC IC50). Further, the remaining at 2 h, 5 µM in data set [4] (human liver microsomes, 5 µM test compound, 37 °C, read-out: % remain (HLM, 2 h)) was found to be 40%. The “% Inhibition” value is 16% in data set [5] (1 mg/ml); 36% and 37% in data set [5] (5 mg/ml); 54% in data set [5] (10 mg/ml). Moreover, the entries for the “Initial Evaluation” value in data set [5] (5 mg/ml) and in data set [5] (10 mg/ml) were “++ (two pluses being judged to be approximately 25-75 % regression)” and “+++ (three pluses give to retinas with near total regression (approximately 75% or greater))”, respectively.
In the case of `CCCn1nc(C)cc1C(=O)Nc1cccc(C(=O)c2ccc3c(/C=C/c4ccccn4)n[nH]c3c2)c1` [41 (r)], the “Initial Evaluation” value in data set [6] was “+/++ var”. Further, the AUCleast in data set [7] (ip, 25 mg/kg) was more than 23752 ng·h/mL; in data set [7] (po, 50 mg/kg), more than 17789 ng·h/mL.
Turning to `C#CCNC(=O)c1ccccc1Nc1ccc2c(/C=C/c3ccccn3)n[nH]c2c1` [Example 39(b), 6-[2-(Prop-2-ynylcarbamoyl)phenylamino]-3-E-[2-(pyridin-2-yl)ethenyl]-1H-indazole], the “% remain (HLM, 2 h)” value in data set [4] (human, microsomes, 5 µM) is 67%. Further, the “% Inhibition” value in data set [6] stood at 9%.
For the molecule `Cc1nc(/C=C/c2n[nH]c3cc(C(=O)c4cccc(NC(=O)c5ccccc5)c4)ccc23)cs1` [Example 42(c)], the “% Inhibition” value in data set [6] is reported as 36%.
As for `O=C(Nc1cccc(C(=O)c2ccc3c(/C=N/n4cccc4)n[nH]c3c2)c1)c1ccccc1` [Example 45(b), 6-(3-Benzamidobenzoyl)-3-E-[N-(pyrrol-1-yl)iminomethyl]-1H-indazole], in data set [4] (human, microsomes, 5 µM), the “% remain (HLM, 2 h)” value is given as 97%. For the same molecule, the “% Inhibition” value in data set [5] (1 mg/ml) turned out to be 25%; in data set [5] (10 mg/ml), 60%. The “Initial Evaluation” value in data set [5] (10 mg/ml) was “++ (two pluses being judged to be approximately 25-75 % regression)”.
`Cc1cc(C(=O)Nc2cc(Nc3ccc4c(/C=C/c5ccccn5)n[nH]c4c3)ccc2F)n(C)n1` [Example 49(a), 6-[N-(3-((1,3-Dimethyl-1H-pyrazol-5-yl)carboxamido)-4-fluorophenyl)amino]-3-E-[2-(pyridin-2-yl)ethenyl]-1H-indazole]: in data set [6], the “% Inhibition” value stood at 54%.
For the molecule `CS(=O)(=O)c1ccc(C(=O)Nc2cccc(Oc3ccc4c(/C=C/c5ccccn5)n[nH]c4c3)c2)s1` [Reference Example 31(c), 6-[3-((5-methylsulfonylthien-2-yl)carboxamido)phenoxy]-3-E-[2-(pyridin-2-yl)ethenyl]-1H-indazole], the results for the inhibition at 1 µM in data set [1] and in data set [2] were 98% and 81%, respectively. For the same molecule, the IC50 in data set [3] (setting [9]) turned out to be 11.4 nM. For the same molecule, the “% remain (HLM, 2 h)” value in data set [4] (setting [10]) came out at 87%. Also, in data set [6], the “Initial Evaluation” value is reported as “+/++ var”.
By AUC is commonly meant the area under the concentration-time curve, a measure of exposure. A higher AUC goes with more exposure. Turning to `Cc1ccc2cc(NC(=O)c3ccccc3Sc3ccc4c(/C=C/c5ccccn5)n[nH]c4c3)ccc2n1` [Reference Example 33(b)], the inhibition at 1 µM in data set [1] was found to be 77%. In data set [5] (10 mg/ml), the “Initial Evaluation” value was “++ (two pluses being judged to be approximately 25-75 % regression)”. The T1/2 came out at 3.0 h in data set [7] (IP, 25 mg/kg) and 3.0 h in data set [7] (PO, 50 mg/kg). The AUC in data set [8] (ip, 25 mg/kg) is 11200 ng·h/mL; in data set [8] (po, 50 mg/kg), 3920 ng·h/mL.
In the case of `O=C(NCC(F)(F)F)c1ccccc1Sc1ccc2c(/C=C/c3ccccn3)n[nH]c2c1` [Reference Example 33(f), 6-[2-(2,2,2-trifluoroethylcarbamoyl)phenylsulfanyl]-3-E-[2-(pyridin-2-yl)ethenyl]-1H-indazole], the IC50 in data set [3] (setting [9]) turned out to be 17 nM. In addition, the “% remain (HLM, 2 h)” value in data set [4] (setting [10]) is reported as 31%. Further, the “% Inhibition” value in data set [6] amounted to 20%.
For `C=CCONC(=O)c1ccccc1Sc1ccc2c(/C=C/c3ccccn3)n[nH]c2c1` [Reference Example 35(j), 6-[2-(Allyloxycarbamoyl)phenylsulfanyl]-3-E-[2-(pyridin-2-yl)ethenyl]-1H-indazole], in data set [6], the “% Inhibition” value is reported as 7%.
For `Cc1ccc2cc(NC(=O)c3ccccc3Sc3ccc4c(/C=C/c5ccccc5)n[nH]c4c3)ccc2n1` [Reference Example 38(a), 6-[2-(2-Methylquinol-6-ylcarbamoyl)phenylsulfanyl]-3-E-(2-styryl)-1H-indazole], the inhibition at 1 µM in data set [1] is 74%; in data set [2] it was 77%. In addition, the “Initial Evaluation” value in data set [5] (1 mg/ml) is on record as “+ (one plus being detectable regression judged to be approximately 25 percent or less)”; in data set [5] (10 mg/ml) it was “+++ (three pluses give to retinas with near total regression (approximately 75% or greater))”.
As for `Cc1cc(C(=O)Nc2cccc(C(=O)c3ccc4c(/C=C/c5ccccn5)n[nH]c4c3)c2)n[nH]1` [Reference Example 41(g), 6-[3-((5-methyl-1H-pyrazol-3-yl)carboxamido)benzoyl]-3-E-[2-(pyridin-2-yl)ethenyl]-1H-indazole], the inhibition at 1 µM in data set [1] was determined as 95%; in data set [2] it was 36%. Further, the values for the IC50 in data set [3] (setting [9]) and in data set [3] (read-out: HUVEC IC50) were more than 10 nM and 0.9 nM, respectively. For the same molecule, the “% remain (HLM, 2 h)” value in data set [4] (setting [10]) is 52%. In data set [6], the “% Inhibition” value is reported as 37%.
With `O=C(c1cccc(NC(=O)C2CC2)c1)c1ccc2c(/C=C/c3ccccn3)n[nH]c2c1` [Reference Example 41(k), 6-[3-(cyclopropylcarboxamido)benzoyl]-3-E-[2-(pyridin-2-yl)ethenyl]-1H-indazole], the inhibition at 1 µM in data set [1] was 49%; in data set [2], 20%. In data set [3] (setting [9]), the IC50 amounted to 48 nM. Moreover, the “% Inhibition” value in data set [6] turned out to be 1%.
Turning to `Cc1cc(C(=O)Nc2cccc(C(=O)c3ccc4c(/C=C/c5ccccn5)n[nH]c4c3)c2)on1` [Reference Example 41(m), 6-[3-((3-methylisoxazol-5-yl)carboxamido)benzoyl]-3-E-[2-(pyridin-2-yl)ethenyl]-1H-indazole], the inhibition at 1 µM was 67% in data set [1] and 40% in data set [2]. In addition, the IC50 in data set [3] (setting [9]) is 23 nM. In data set [4] (setting [10]), the “% remain (HLM, 2 h)” value is 0%. For the same molecule, the “% Inhibition” value in data set [6] is recorded as 10%.
Take `Cc1cc(C(=O)Nc2cc(C(=O)c3ccc4c(/C=C/c5ccccn5)n[nH]c4c3)c(C)cc2C)n(C)n1` [Reference Example 41(mm), 6-[2,4-dimethyl-5-((1,3-dimethyl-1H-Pyrazol-5-yl)carboxamido)benzoyl]-3-E-[2-(pyridin-2-yl)ethenyl]-1H-indazole]: the “Initial Evaluation” value in data set [6] is listed as “+ (one plus being detectable regression judged to be approximately 25 percent or less)”.
For `Cn1nc(C(C)(C)C)cc1C(=O)Nc1cccc(C(=O)c2ccc3c(/C=C/c4ccccn4)n[nH]c3c2)c1` [Reference Example 41(n), 6-[3-((3-t-butyl-1-methyl-1H-pyrazol-5-yl)carboxamido)benzoyl]-3-E-[2-(pyridin-2-yl)ethenyl]-1H-indazole], the inhibition at 1 µM in data set [1] amounted to 87%; in data set [2] it was 66%. Moreover, the “% remain (HLM, 2 h)” value in data set [4] (setting [10]) came to 70%. The “% Inhibition” value in data set [6] stood at 2%.
